The source of these data is patent US8211402B2, “CA-IX specific radiopharmaceuticals for the treatment and imaging of cancer” (Molecular Insight Pharmaceuticals, Inc., priority 2008, dated 2012).

For one experiment, the target named is T1, CA-II (Homo sapiens, UniProt P00918).
T1 construct: purchased R&D Systems
As to the kind of experiment: Inhibition of carbonic anhydrase II (4-nitrophenyl acetate hydrolysis, spectrophotometric at 400 nm). In kind it is biochemical. The settings on record: purified human enzyme 30 nM; 9 mM Tris-HCl, 81 mM NaCl, pH 7.4, 25° C.; 10 min preincubation. As for the experimental part:
(§1) Compounds were tested for their ability to inhibit carbonic anhydrase isozymes II and IX in vitro. Purified human enzymes were from R&D Systems (Minneapolis, Minn.). The inhibition constants (Ki) for CA-II and CA-IX were determined by the method of Pocker and Stone. Initial rates of 4-nitrophenyl acetate hydrolysis catalyzed by the different carbonic anhydrase isozymes were measured spectrophotometrically at 400 nm. Solutions of substrate (1×10^−2 to 1×10^−6 M) were prepared in anhydrous acetonitrile. A molar extinction coefficient of 18,000 M^−1·cm^−1 was used for the 4-nitrophenolate formed by hydrolysis under the conditions of the experiment (9 mM Tris-HCl, 81 mM NaCl, pH 7.4, 25° C.). The enzyme concentrations were 100 nM for CA-IX and 30 nM for CA-II. Non-enzymatic hydrolysis rates, determined in the absence of added enzyme, were subtracted from the observed rates. […] Dilutions of inhibitor were added to enzyme solutions and preincubated for 10 min to allow for the formation of the E-I complex prior to the addition of substrate. Acetazolamide was included in all assays as positive controls

For the next experiment, the target named is T2, CA-IX (Homo sapiens, UniProt Q16790).
T2 construct: purchased R&D Systems
Description: Inhibition of carbonic anhydrase IX (4-nitrophenyl acetate hydrolysis, spectrophotometric at 400 nm). In kind it is biochemical. To be noted: purified human enzyme 100 nM; 9 mM Tris-HCl, 81 mM NaCl, pH 7.4, 25° C.; 10 min preincubation. As for the experimental part:
as §1

`NS(=O)(=O)c1ccc(NC(=S)N[C@@H](CC(=O)O)C(=O)N[C@@H](CC(=O)O)C(=O)NCc2ccc(I)cc2)cc1` [Comparative Example 1]: the IC50 was found to be 377 nM against CA-II and 77 nM against CA-IX.
